# Test results from publication PMC12722920, “Pharmacokinetics and pharmacodynamics of cannabigerol (CBG) in the C57BL/6Crl mouse” (Frontiers in Pharmacology, 2025).
# Experiments:
# [1] = system: C57BL/6Crl mice; assay: Cannabinoid tetrad: catalepsy in the ring holding assay; assay type: in vivo; settings: for ED50: Mus musculus, iv
# [2] = system: C57BL/6Crl mice; assay: Cannabinoid tetrad: nociception by tail-flick latency; assay type: in vivo; settings: for ED50: Mus musculus, iv
# [3] = system: C57BL/6Crl mice; assay: Open field test (OFT): locomotion and anxiety-like behaviour; assay type: in vivo
# Experimental: Catalepsy was assessed in the ring holding assay; mice were positioned with their forepaws grasping onto a 0.5 cm thick ring clamp elevated 5 cm above the testing surface. The duration of time while the ring was held was recorded in seconds, with each trial terminated if the mouse’s forepaw released from the bar, upon turning of the head or body, or after 60 s of immobility. Catalepsy was evaluated three times consecutively, and the average time spent holding the bar was reported as a percent of the maximum possible effect (% MPE, up to 60 s). Internal body temperature was measured via a rectal thermometer. Nociception was determined by assessing tail-flick latency, where mice were restrained with their tails placed ∼1 cm into 52 °C ± 2 °C water. The time (sec) until the tail was removed was measured, with observations ending at 20 s and represented as a % MPE. Locomotion and anxiety-like behaviour were assessed in the OFT. Mice were placed in an open space (90 cm × 90 cm) and recorded for 5 min. Total distance travelled (cm), velocity (cm/sec), time in the centre quadrant (sec), and central quadrant entries were measured with EthoVision XT (Noldus Information Technology Inc., Leesburg, VA).
# In Phase I (Part B), after determining the timepoint at which blood CBG concentrations were highest for each respective route of administration, the timing for each measure in the tetrad was adjusted. An assessment was conducted in a new cohort consisting of both male and female mice (n = 4 per sex per route) receiving a dose of 10 mg/kg of CBG via i.v., i.p., or p.o. routes. For those administered with i.v. CBG, the timing was: catalepsy at 5 min, body temperature at 15 min, tail-flick latency at 20 min, and OFT at 25 min post-injection. For i.p. CBG, measurements were taken at 20 min for catalepsy, 25 min for body temperature, 30 min for tail-flick latency, and 35 min for OFT post-injection. For p.o. CBG, data collection was scheduled as follows: catalepsy at 170 min, body temperature at 175 min, tail-flick latency at 180 min, and OFT at 185 min post-injection.
# [4] = parameters: method as in Newmeyer et al., 2016; settings: ref Newmeyer et al., 2016, cited from earlier work
# [5] = 1, 3, 10 or 30 mg/kg i.v., male and female mice
# [6] = accounting for blood concentrations measured at 10 min, i.v.
structure (smiles),measurement,setting,value
"CCCCCc1cc(O)c(C/C=C(\C)CCC=C(C)C)c(O)c1 [CBG, cannabigerol]","catalepsy, mean % MPE","[1]; 10 mg/kg i.p., 20 min post-injection, male and female mice, MPE = 60 s",5.4% ± 2.5%
same,cataleptic response,"[1]; 10 mg/kg i.v., i.p. and p.o., male mice, 5 min post-injection",did not produce a cataleptic response
same,"catalepsy, dose-response",[1]; [5],"produced a modest effect but only at the highest dose tested, 30 mg/kg"
same,ED50,"[1]; 5 min, i.v., both sexes, 5 min post-administration, read-out: ED50 catalepsy",> 30 mg/kg
same,ED50,"[1]; both sexes, three-parameter nonlinear regression, read-out: ED50 catalepsy, estimate exceeding the dose range (square brackets)",> 30 mg/kg
same,ED50,"[1]; males, read-out: ED50 catalepsy",> 30 mg/kg
same,"Intoxication ratio, catalepsy","[1]; THC potency/CBG potency corrected for blood concentration at 10 min, both sexes",0.23
same,"intoxication relative to THC, catalepsy",[1]; [6],23%
same,"Intoxication ratio, catalepsy",[1]; females,0.28
same,ED50 catalepsy,"[1]; i.v., females",> 30 mg/kg
same,"Intoxication ratio, catalepsy",[1]; males,0.17
same,anti-nociceptive response in tail-flick vs vehicle,"[2]; 10 mg/kg i.v., 20 min post-administration, male and female mice",produced an anti-nociceptive response
same,tail-flick latency,"[2]; 10 mg/kg i.v., i.p. and p.o., male mice, 20 min post-injection",did not alter tail-flick latency
same,"anti-nociception, dose-response",[2]; [5],"produced a modest effect but only at the highest dose tested, 30 mg/kg"
same,anti-nociceptive effect (tail-flick),[2]; CBG given i.p.,10% ± 0.83%
same,ED50,"[2]; 20 min, i.v., both sexes, 20 min post-administration, read-out: ED50 tail-flick latency",> 30 mg/kg
same,ED50,"[2]; both sexes, read-out: ED50 tail-flick latency, estimate exceeding the dose range (square brackets)",> 30 mg/kg
same,ED50,"[2]; males, read-out: ED50 tail-flick latency",> 30 mg/kg
same,"intoxication relative to THC, anti-nociception",[2]; [6],3.6%
same,"Intoxication ratio, tail-flick latency",[2]; both sexes,0.036
same,"Intoxication ratio, tail-flick latency",[2]; females,0.038
same,ED50 tail-flick latency,"[2]; i.v., females",> 30 mg/kg
same,"OFT time in the center, CBG compared to THC",[3]; 10 mg/kg i.p. or p.o.,spent significantly more time in the center
same,OFT velocity,"[3]; 10 mg/kg i.p., CBG 35 min post-administration",reduced velocity compared to both i.p. vehicle and THC administration
same,OFT total distance travelled,"[3]; 10 mg/kg i.p., compared to i.p. THC",total distance travelled was reduced
same,OFT entries to the center,"[3]; 10 mg/kg i.p., compared to vehicle",entered the center fewer times than their vehicle-treated counterparts
same,OFT velocity,"[3]; 10 mg/kg i.v., 25 min post-administration, male and female mice",reduced velocity compared to vehicle treatment
same,OFT total distance travelled,"[3]; 10 mg/kg i.v., compared to i.v. vehicle",total distance travelled was reduced
same,OFT time in the center,"[3]; 10 mg/kg i.v., compared to the vehicle",Time in the center was reduced
same,OFT entries to the center,"[3]; 10 mg/kg i.v., compared to vehicle",entered the center fewer times than their vehicle-treated counterparts
same,OFT entries to the center,[3]; 10 mg/kg p.o.,entered the center of the OFT more times than mice given CBG i.v.
same,OFT velocity,"[3]; 10 mg/kg p.o., CBG 185 min post-administration",reduced velocity compared to p.o. THC
same,detection in blood after oral cannabis,[4]; cannabis administered orally,not detected
same,time CBG was detected after smoking,[4]; frequent cannabis smokers,up to 17 min
same,time CBG was detected following vaporization,[4]; frequent cannabis smokers,up to 13 min
